According to article PMC10861299, “A Systematic Survey of Reversibly Covalent Dipeptidyl Inhibitors of the SARS-CoV-2 Main Protease” (Journal of Medicinal Chemistry, 2023):
Read-outs that look alike come from different tables or passages of the source.

What was measured:
[1] = biological target: M^Pro-eGFP fusion protein in 293T cells (Severe acute respiratory syndrome coronavirus 2, UniProt P0DTD1); test: cell-based; parameters: species or system SARS-CoV-2; conditions: read-out: Cellular EC50
[2] = biological target: SARS-CoV-2 main protease (M^Pro) (Severe acute respiratory syndrome coronavirus 2, UniProt P0DTD1); test: In vitro M^Pro enzymatic inhibition with fluorogenic substrate Sub3; type: biochemical; conditions: 20 nM M^Pro, 10 μM Sub3, 30 min preincubation; read-out: Enzymatic IC50
[3] = tested on: SARS-CoV-2 (USA-WA1/2020); test: Plaque reduction neutralization test in Vero E6 cells; type: cell-based; conditions: SARS-CoV-2 USA-WA1/2020, Vero E6 cells, 3 days, read-out: Antiviral EC50
[4] = Severe acute respiratory syndrome coronavirus 2, Vero C1008, 72 h

Row | SMILES | EC50 [1] [nM] | IC50 [2] [nM] | EC50 [3, 4] [nM] | EC50 [3] [nM]
1 | O=C[C@H](C[C@@H]1CCNC1=O)NC(=O)[C@@H]1CC2(CC2)CN1C(=O)OCc1ccccc1 [MPI58, Benzyl (S)-6-(((S)-1-oxo-3-((S)-2-oxopyrrolidin-3-yl)propan-2yl)carbamoyl)-5-azaspiro[2,4]heptane-5-carboxylate] | 660 | 25 | 3600 | –
2 | CC(C)(C)C[C@H](NC(=O)c1cc2ccccc2[nH]1)C(=O)N[C@H](C=O)C[C@@H]1CCNC1=O [MPI48, N-((S)-4,4-Dimethyl-1-oxo-1-(((S)-1-oxo-3-((S)-2-oxopyrrolidin-3-yl)propan-2-yl)amino)pentan-2-yl)-1H-indole-2-carboxamide] | 1600 | 29 | – | –
3 | CC1(C)[C@@H]2[C@@H](C(=O)NC(C=O)CC3CCNC3=O)N(C(=O)OCc3ccccc3)C[C@@H]21 (stereo partly drawn) [MPI57, Benzyl (1R,2S,5S)-6,6-Dimethyl-2-((1-oxo-3-(2-oxopyrrolidin-3-yl)propan-2-yl)carbamoyl)-3-azabicyclo[3.1.0]hexane-3-carboxylate] | – | – | 1500 | –
4 | COc1cccc2[nH]c(C(=O)N[C@@H](CC(C)(C)C)C(=O)N[C@H](C=O)C[C@@H]3CCNC3=O)cc12 [MPI49, N-((S)-4,4-Dimethyl-1-oxo-1-(((S)-1-oxo-3-((S)-2-oxopyrrolidin-3-yl)propan-2-yl)amino)pentan-2-yl)-4-methoxy-1H-indole-2-carboxamide] | 910 | 74 | 1300 | –
5 | CC1(C)[C@@H]2[C@@H](C(=O)N[C@H](C=O)C[C@@H]3CCNC3=O)N(C(=O)CCC3CCCCC3)C[C@@H]21 [MPI65, (1R,2S,5S)-3-(3-Cyclohexylpropanoyl)-6,6-dimethyl-N-((S)-1-oxo-3-((S)-2-oxopyrrolidin-3-yl)propan-2-yl)-3-azabicyclo[3.1.0]hexane-2-carboxamide] | 560 | 41 | < 1000 | 960
6 | O=C[C@H](C[C@@H]1CCNC1=O)NC(=O)[C@@H]1CC2(CCC2)CN1C(=O)OCc1ccccc1 [MPI59, Benzyl (S)-7-(((S)-1-Oxo-3-((S)-2-oxopyrrolidin-3-yl)propan-2-yl)carbamoyl)-6-azaspiro[3.4]octane-6-carboxylate] | 430 | 30 | < 1000 | 560
7 | CC(C)(C)C[C@H](NC(=O)OCc1ccccc1)C(=O)N[C@H](C=O)C[C@@H]1CCNC1=O [MPI50, Benzyl ((S)-4,4-Dimethyl-1-oxo-1-(((S)-1-oxo-3-((S)-2-oxopyrrolidin-3-yl)propan-2-yl)amino)pentan-2-yl)carbamate] | 730 | 53 | < 1000 | 750
8 | CC1(C)[C@@H]2[C@@H](C(=O)N[C@H](C=O)C[C@@H]3CCNC3=O)N(C(=O)COC3CCCCC3)C[C@@H]21 [MPI64, (1R,2S,5S)-3-(2-(Cyclohexyloxy)acetyl)-6,6-dimethyl-N-((S)-1-oxo-3-((S)-2-oxopyrrolidin-3-yl)propan-2-yl)-3-azabicyclo[3.1.0]hexane-2-carboxamide] | 3600 | 25 | – | –
9 | O=C[C@H](C[C@@H]1CCNC1=O)NC(=O)[C@H](CC1CCCCC1)NC(=O)OCc1cccc(Cl)c1 [MPI52, 3-Chlorobenzyl ((S)-3-Cyclohexyl-1-oxo-1-(((S)-1-oxo-3-((S)-2-oxopyrrolidin-3-yl)propan-2-yl)amino)propan-2-yl)carbamate] | 590 | 110 | 2600 | –
10 | CC(=O)Oc1cccc(COC(=O)N[C@@H](CC2CCCCC2)C(=O)N[C@H](C=O)C[C@@H]2CCNC2=O)c1 [MPI53, 3-(((((S)-3-Cyclohexyl-1-oxo-1-(((S)-1-oxo-3-((S)-2-oxopyrrolidin-3-yl)propan-2-yl)amino)propan-2-yl)carbamoyl)oxy)methyl)phenyl Acetate] | 3500 | 98 | – | –
